Measured values published in patent US11214803B2, “Modulators of YAP1 expression” (Ionis Pharmaceuticals, Inc., priority 2019, dated 2022).
Strand notation (5' to 3'): a small letter for the sugar, then the base; units joined by * are phosphorothioate-linked, units joined directly phosphodiester-linked; [ ] holds rarer units or linkages, { } end groups; capitals alone tell only the bases. k = constrained ethyl (cEt); [5mC] = 5-methylcytosine; d = 2'-deoxy (DNA)

Assays:
Yap1 mRNA [1] = assay: Antisense inhibition of human Yap1 in A-431 cells by cEt gapmers, single dose (Example 2, RTS4814); assay type: cell-based; conditions: 3-10-3 cEt gapmers targeting SEQ ID NO.: 1, and 2
In short: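 A-431 cells (5,000/well) took up 2,000 nM 3-10-3 cEt gapmer by free uptake for ~48 h. Yap1 mRNA was quantified by qRT-PCR with primer probe set RTS4814, normalized to RIBOGREEN total RNA, and reported as % of untreated control.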

Yap1 mRNA [2] = assay: Dose-dependent inhibition of human Yap1 in A-431 cells (Example 8, 10,000 cells per well, RTS4814); assay type: cell-based; conditions: free uptake, approximately 48 hours, RTS4814; for Yap1 mRNA, % UTC: A-431 cells, 10,000 cells per well; for IC50: A-431 cells, linear regression on log/linear plot
In short: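 A-431 cells (10,000/well) dosed with modified oligonucleotides by free uptake; Yap1 mRNA measured ~48 h later with primer-probe set RTS4814, normalized to total RNA (RIBOGREEN). Values are % of untreated control; IC50 from linear regression on log/linear plot.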

[3] = Table 32, Yap1 mRNA, percent of untreated control
[4] = Yap1 mRNA as percent of untreated control, A-431 cells, Table 30
[5] = Table 33, Yap1 mRNA, percent of untreated control
[6] = Yap1 mRNA as percent of untreated control, A-431 cells, Table 31

Substance | YAP1 (% UTC) (Yap1 mRNA [1]; [3]) | Yap1 mRNA, % UTC (Yap1 mRNA [2]; 31.3 nM) [% UTC] | Yap1 mRNA, % UTC (Yap1 mRNA [2]; 125.0 nM) [% UTC] | Yap1 mRNA, % UTC (Yap1 mRNA [2]; 500.0 nM) [% UTC] | Yap1 mRNA, % UTC (Yap1 mRNA [2]; 2000.00 nM) [% UTC] | IC50 (Yap1 mRNA [2]) [nM] | YAP1 (% UTC) (Yap1 mRNA [1]; [4]) | YAP1 (% UTC) (Yap1 mRNA [1]; [5]) | YAP1 (% UTC) (Yap1 mRNA [1]; [6])
1076466 (kA*kT*kT*dT*dA*dG*dA*dG*d[5mC]*dT*dT*dA*dA*kG*kG*kA; antisense) [compound 1076466] | 5 | 43 | 18 | 8 | 6 | < 20 | – | – | –
1074608 (DNA kG*kT*kT*dA*d[5mC]*dA*dT*d[5mC]*dA*dT*d[5mC]*dT*d[5mC]*kT*kT*k[5mC]) [compound 1074608] | – | 49 | 20 | 9 | 7 | < 20 | 5 | – | –
1074450 (kA*k[5mC]*kT*dA*dA*dT*dG*dA*dT*dA*dG*d[5mC]*dA*k[5mC]*kT*kA; antisense) [compound 1074450] | 5 | 54 | 22 | 7 | 5 | < 20 | – | – | –
1075699 (kG*kA*kT*dT*dT*dA*dT*dA*d[5mC]*dT*d[5mC]*dA*dG*kG*kT*kT; antisense) [compound 1075699] | – | 26 | 6 | 3 | 2 | < 20 | – | 4 | –
1076465 (kG*k[5mC]*kT*dT*dA*dA*dG*dG*dA*dA*dT*dA*dT*kA*k[5mC]*kA; antisense) [compound 1076465] | – | 72 | 32 | 14 | 7 | 100 | – | – | 5
1076467 (kG*kT*kA*dT*dT*dT*dA*dG*dA*dG*d[5mC]*dT*dT*kA*kA*kG; antisense) [compound 1076467] | – | 24 | 6 | 3 | 2 | < 20 | – | 5 | –
1076115 (k[5mC]*kA*kT*dT*dA*dG*dT*dA*dA*dG*d[5mC]*dT*dG*kA*kG*kG; antisense) [compound 1076115] | – | 47 | 17 | 9 | 6 | < 20 | – | 7 | –
1076049 (kA*kG*kA*dT*dT*dA*dA*dA*dG*dG*d[5mC]*dT*dG*kG*kA*kA; antisense) [compound 1076049] | – | 61 | 16 | 13 | 6 | < 20 | – | – | 4
1074579 (DNA k[5mC]*k[5mC]*kA*d[5mC]*dT*dA*dT*dA*dA*dA*dG*d[5mC]*dT*kT*kA*kT) [compound 1074579] | – | 54 | 22 | 8 | 5 | < 20 | – | 6 | –
1074418 (kT*kT*k[5mC]*dT*dT*dT*dA*dG*dA*dG*d[5mC]*d[5mC]*dA*kA*k[5mC]*kT; antisense) [compound 1074418] | 4 | 55 | 26 | 9 | 4 | < 20 | – | – | –
1074419 (kA*kT*kT*d[5mC]*dT*dT*dT*dA*dG*dA*dG*d[5mC]*d[5mC]*kA*kA*k[5mC]; antisense) [compound 1074419] | – | 48 | 15 | 5 | 3 | < 20 | – | 4 | –
1074800 (k[5mC]*kA*kA*dA*dT*dA*dG*dT*dG*d[5mC]*dT*dT*dT*kG*kG*kA; antisense) [compound 1074800] | – | 48 | 21 | 10 | 7 | < 20 | 6 | – | –
1075089 (k[5mC]*kA*kT*dT*dT*dA*dT*dA*dG*dT*d[5mC]*dA*dG*kG*kT*kT; antisense) [compound 1075089] | – | 45 | 9 | 3 | 3 | < 20 | – | – | 2
1074448 (kT*kA*kA*dT*dG*dA*dT*dA*dG*d[5mC]*dA*d[5mC]*dT*kA*kG*kG; antisense) [compound 1074448] | – | 54 | 13 | 4 | 3 | < 20 | 3 | – | –
1075088 (kA*kT*kT*dT*dA*dT*dA*dG*dT*d[5mC]*dA*dG*dG*kT*kT*k[5mC]; antisense) [compound 1075088] | – | 37 | 9 | 4 | 2 | < 20 | 2 | – | –
1074480 (kT*k[5mC]*kA*dT*dT*dT*dG*d[5mC]*d[5mC]*dT*dA*dG*dG*kT*kT*k[5mC]; antisense) [compound 1074480] | – | 33 | 9 | 5 | 3 | < 20 | 3 | – | –
1075792 (kG*kA*kT*dT*dA*dG*dA*dA*dA*dG*dT*dG*d[5mC]*k[5mC]*kT*kT; antisense) [compound 1075792] | – | 79 | 41 | 15 | 10 | 100 | 6 | – | –
1074577 (DNA kT*kA*kT*dT*dT*d[5mC]*dT*dG*dT*d[5mC]*dA*dT*dG*k[5mC]*kA*k[5mC]) [compound 1074577] | – | 33 | 10 | 4 | 3 | < 20 | – | – | 3
1076530 (kA*kG*kT*dA*dT*dA*dA*dA*dG*d[5mC]*dA*dG*dG*kG*k[5mC]*kA; antisense) [compound 1076530] | 5 | 53 | 26 | 11 | 7 | < 20 | – | – | –
1074451 (kG*kA*k[5mC]*dT*dA*dA*dT*dG*dA*dT*dA*dG*d[5mC]*kA*k[5mC]*kT; antisense) [compound 1074451] | – | 63 | 26 | 8 | 4 | 40 | – | 6 | –
1074737 (kT*kT*k[5mC]*dA*dG*dG*dT*d[5mC]*dA*dG*dT*dA*d[5mC]*kA*kG*kA; antisense) [compound 1074737] | – | 50 | 21 | 8 | 6 | < 20 | – | – | 7
1074801 (kA*k[5mC]*kA*dA*dA*dT*dA*dG*dT*dG*d[5mC]*dT*dT*kT*kG*kG; antisense) [compound 1074801] | – | 76 | 41 | 19 | 12 | 100 | – | – | 8
1076114 (kA*kT*kT*dA*dG*dT*dA*dA*dG*d[5mC]*dT*dG*dA*kG*kG*kA; antisense) [compound 1076114] | 3 | 34 | 11 | 6 | 5 | < 20 | – | – | –
